Data published in patent US11420984B2, “Arginase inhibitors and methods of use thereof” (AstraZeneca AB, priority 2018, dated 2022).

Columns and labels:
[1] = molecular target: Human Arginase 2 (Homo sapiens (Human), UniProt P78540); assay: Human Arginase 2 enzyme inhibition (thioarginine/DTNB absorbance assay); assay type: biochemical; conditions: recombinant enzyme 5 nM, 0.5 mM thioarginine premix, 60 min
Protocol: (§1) The thiol group was detected with Ellman's reagent, 5,5′-dithiobis(2-nitrobenzoic acid) (DTNB). DTNB reacts with the thiol to give the mixed disulfide and 2-nitro-5-thiobenzoic acid (TNB) which is quantified by the absorbance of the anion (TNB^2−) at 412 nm.
(§2) The assays were run in clear 384 well plates (Greiner cat no: 781101). […] Two pre-mixes were prepared from reagents thawed immediately before addition to assay plates. Pre-mix one comprised human Arginase 1 or human Arginase 2, at a final concentration of 5 nM and 0.5 mM DTNB in assay buffer, 45 mM HEPES pH7.5, brij 35, 0.045% (w/v) and 100 μM MnCl2. Pre-mix two comprised freshly thawed 0.5 mM thioarginine in assay buffer.
(§3) Assay plates were centrifuged prior to reading absorbance at 412 nm in a Pherastar multi-mode plate reader to collect data at time point 0 (T0). The plates were incubated at room temperature for 60 min prior to reading again to collect data at time point 1 (T1). Data is derived by subtracting the A412 signal measured at T0 (time point 0) from that measured at T1 (time point 1). The data was transformed to % effect using the equation: Compound % effect=100*[(X−min)/(max−min)], where X represents the normalized value for the compound based on the Min (vehicle) and Max (reference compound) inhibition control.

[2] = molecular target: Human Arginase 1 (Homo sapiens (Human), UniProt P05089); assay: Human Arginase 1 enzyme inhibition (thioarginine/DTNB absorbance assay); assay type: biochemical; conditions: recombinant enzyme 5 nM, 0.5 mM thioarginine premix, 60 min
Chain of Human Arginase 1 (P05089 whole entry): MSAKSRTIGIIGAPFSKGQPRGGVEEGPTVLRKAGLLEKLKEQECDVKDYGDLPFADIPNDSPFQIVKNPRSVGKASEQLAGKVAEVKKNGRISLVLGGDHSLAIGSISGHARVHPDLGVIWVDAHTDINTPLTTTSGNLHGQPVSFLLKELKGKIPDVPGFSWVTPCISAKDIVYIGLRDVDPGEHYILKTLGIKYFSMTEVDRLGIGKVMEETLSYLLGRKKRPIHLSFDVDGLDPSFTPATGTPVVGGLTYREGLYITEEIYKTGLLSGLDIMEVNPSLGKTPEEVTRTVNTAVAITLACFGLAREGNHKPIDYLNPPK
Protocol: as §1, §2, §3

[3] = Bioavailability / pharmacokinetic study in male rats (IV and PO); assay type: in vivo, rat; conditions: plasma, pro-drug itself, observed when dosed as pro-drug, male rat; for clearance / Vd: IV 2 mg/kg; for Vd: read-out: Vdss; for AUC / Cmax / Tmax: PO 5 mg/kg; for bioavailability: PO 5 mg/kg vs IV 2 mg/kg
Protocol: Example 8 was formulated in 0.9% w/v saline pH 4 (adjusted with 1M HCl) for IV dosing. The formulation was dosed at 2 mg/kg by femoral catheter to two male rats each (170-250 g). Jugular vein catheter serial blood samples were taken at 0.033, 0.083, 0.167, 0.5, 1, 2, 4, 8, and 24 hrs post-dose. For PO dosing, Example 8 was formulated in deionized water pH 4 (adjusted with 1M HCl) and dosed at 5 mg/kg by oral gavage to two male rats each (170-250 g). Serial blood samples were taken by jugular vein catheter at 0.25, 0.5, 1, 1.5, 2, 3, 4, 8, and 24 hrs post dose. Plasma samples were generated from blood using low speed centrifugation. […] The samples and standards were extracted by precipitation with two volumes of acetonitrile followed by centrifugation. […] Where appropriate, measured and not nominal doses were used to calculate bioavalability.

Chain of Human Arginase 2 (P78540 23-354): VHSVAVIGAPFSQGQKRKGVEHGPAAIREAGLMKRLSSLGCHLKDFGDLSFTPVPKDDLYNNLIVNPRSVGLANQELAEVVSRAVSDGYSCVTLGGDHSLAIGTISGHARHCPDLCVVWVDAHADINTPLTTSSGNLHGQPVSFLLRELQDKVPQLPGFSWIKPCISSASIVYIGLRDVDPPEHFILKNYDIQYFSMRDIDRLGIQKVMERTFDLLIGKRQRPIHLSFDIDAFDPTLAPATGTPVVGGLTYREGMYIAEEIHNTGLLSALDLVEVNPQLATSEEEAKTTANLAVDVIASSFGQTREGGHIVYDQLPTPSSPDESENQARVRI

Structure (SMILES)	IC50 [1] [nM]	IC50 [2] [nM]	clearance [3] [mL/min/kg]	Vd [3] [L/kg]	AUC [3] [µM·h]	Cmax [3] [nM]	Tmax [3] [min]	bioavailability [3] [%]
CN(C)[C@H]1CN[C@@](CCCCB(O)O)(C(=O)O)C1 [Example 25, (2R,4R)-2-(4-boronobutyl)-4-(dimethylamino)pyrrolidine-2-carboxylic acid]	24600	10800						
CC(C)[C@@H](N)C(=O)N[C@H]1CN[C@@](CCCCB(O)O)(C(=O)O)C1 [Example 10, (2R,4R)-4-((R)-2-amino-3-methylbutanamido)-2-(4-boronobutyl)pyrrolidine-2-carboxylic acid]	4770	3770						
CC(C)[C@H](N)C(=O)N(C)[C@H]1CN[C@](CCCCB(O)O)(C(=O)O)C1 [Example 30, (2S,4R)-4-[[(2S)-2-amino-3-methyl-butanoyl]-methyl-amino]-2-(4-boronobutyl)pyrrolidine-2-carboxylic acid]	2420	1350						
CN(C)[C@H]1CN[C@](CCCCB(O)O)(C(=O)O)C1 [Example 26, (2S,4R)-2-(4-boronobutyl)-4-(dimethylamino)pyrrolidine-2-carboxylic acid]	150	60						
CC(C)(C)[C@H](N)C(=O)N[C@H]1CN[C@@](CCCCB(O)O)(C(=O)O)C1 [Example 11, (2R,4R)-4-((S)-2-amino-3,3-dimethylbutanamido)-2-(4-boronobutyl)pyrrolidine-2-carboxylic acid]	200	210						
CC(C)[C@](C)(N)C(=O)N[C@H]1CN[C@@](CCCCB(O)O)(C(=O)O)C1 [Example 21, (2R,4R)-4-[[(2S)-2-amino-2,3-dimethyl-butanoyl]amino]-2-(4-boronobutyl)pyrrolidine-2-carboxylic acid]	680	480						
O=C(N[C@H]1CN[C@@](CCCCB(O)O)(C(=O)O)C1)[C@@H]1CCCN1 [Example 12, (2R,4R)-2-(4-boronobutyl)-4-((S)-pyrrolidine-2-carboxamido)pyrrolidine-2-carboxylic acid]	850	700						
CC[C@H](C)[C@H](N)C(=O)N[C@H]1CN[C@@](CCCCB(O)O)(C(=O)O)C1 [Example 15, (2R,4R)-4-((2S,3S)-2-amino-3-methylpentanamido)-2-(4-boronobutyl)pyrrolidine-2-carboxylic acid]	260	310	104	0.46				
CC(C)[C@H](N)C(=O)N[C@H]1CN[C@@](CCCCB(O)O)(C(=O)O)C1 [Example 9, (2R,4R)-4-((S)-2-amino-3-methylbutanamido)-2-(4-boronobutyl)pyrrolidine-2-carboxylic acid]	330	320	33.3	0.2	0.24	600	15	3.2
CC(C)(O)[C@H](N)C(=O)N[C@H]1CN[C@@](CCCCB(O)O)(C(=O)O)C1 [Example 20, (2R,4R)-4-[[(2S)-2-amino-3-hydroxy-3-methyl-butanoyl]amino]-2-(4-boronobutyl)pyrrolidine-2-carboxylic acid]	520	340	8.9	0.29	6.9	1800	60	25.5
N[C@@H](CO)C(=O)N[C@H]1CN[C@@](CCCCB(O)O)(C(=O)O)C1 [Example 17, (2R,4R)-4-((S)-2-amino-3-hydroxypropanamido)-2-(4-boronobutyl)pyrrolidine-2-carboxylic acid]	230	200	40.5	0.36	0.38	430	22.8	5.8
O=C(O)[C@@]1(CCCCB(O)O)CCCN1 [Example 1, (R)-2-(4-boronobutyl)pyrrolidine-2-carboxylic acid]	23000	14700						
CC(C)C[C@H](N)C(=O)N[C@H]1CN[C@@](CCCCB(O)O)(C(=O)O)C1 [Example 16, (2R,4R)-4-((S)-2-amino-4-methylpentanamido)-2-(4-boronobutyl)pyrrolidine-2-carboxylic acid]	310	310	585	7.41				
NC[C@H](N)C(=O)N[C@H]1CN[C@@](CCCCB(O)O)(C(=O)O)C1 [Example 22, (2R,4R)-2-(4-boronobutyl)-4-[[(2S)-2,3-diaminopropanoyl]amino]pyrrolidine-2-carboxylic acid]	1320	930						
CC[C@H](N)C(=O)N[C@H]1CN[C@@](CCCCB(O)O)(C(=O)O)C1 [Example 14, (2R,4R)-4-((S)-2-aminobutanamido)-2-(4-boronobutyl)pyrrolidine-2-carboxylic acid]	310	260						
CC(C)[C@H](N)C(=O)N(C)[C@H]1CN[C@@](CCCCB(O)O)(C(=O)O)C1 [Example 29, (2R,4R)-4-[[(2S)-2-amino-3-methyl-butanoyl]-methyl-amino]-2-(4-boronobutyl)pyrrolidine-2-carboxylic acid]	9280	5270						

More lines, now with the values ahead:

IC50 [1] [nM]	IC50 [2] [nM]	clearance [3] [mL/min/kg]	Vd [3] [L/kg]	AUC [3] [µM·h]	Cmax [3] [nM]	Tmax [3] [min]	bioavailability [3] [%]	Structure (SMILES)
3320	1430							NCCN[C@H]1CN[C@@](CCCCB(O)O)(C(=O)O)C1 [Example 27, (2R,4R)-4-(2-aminoethylamino)-2-(4-boronobutyl)pyrrolidine-2-carboxylic acid]
10	< 3							CN[C@H]1CN[C@](CCCCB(O)O)(C(=O)O)C1 [Example 24, (2S,4R)-2-(4-boronobutyl)-4-(methylamino)pyrrolidine-2-carboxylic acid]
630	430	17.9	0.2	0.62	460	30	3.8	NCC(=O)N[C@H]1CN[C@@](CCCCB(O)O)(C(=O)O)C1 [Example 13, (2R,4R)-4-(2-aminoacetamido)-2-(4-boronobutyl)pyrrolidine-2-carboxylic acid]
10400	4550							O=C(O)[C@@]1(CCCCB(O)O)C[C@@H](O)CN1 [Example 3, (2R,4R)-2-(4-boronobutyl)-4-hydroxypyrrolidine-2-carboxylic acid]
2120	1140							CN[C@H]1CN[C@@](CCCCB(O)O)(C(=O)O)C1 [Example 23, (2R,4R)-2-(4-boronobutyl)-4-(methylamino)pyrrolidine-2-carboxylic acid]
560	610							C[C@H](N)C(=O)N[C@H]1CN[C@@](CCCCB(O)O)(C(=O)O)C1 [Example 8, (2R,4R)-4-((S)-2-aminopropanamido)-2-(4-boronobutyl)pyrrolidine-2-carboxylic acid]
190	90							NCCN[C@H]1CN[C@](CCCCB(O)O)(C(=O)O)C1 [Example 28, (2S,4R)-4-(2-aminoethylamino)-2-(4-boronobutyl)pyrrolidine-2-carboxylic acid]
21400	26600							O=C(O)[C@@]1(CCCCB(O)O)C[C@H](O)CN1 [Example 2, (2R,4S)-2-(4-boronobutyl)-4-hydroxypyrrolidine-2-carboxylic acid]
